How the values were obtained:
Assay type in all cases: cell-based, human
[1] = system: (G4C2)66-No ATG-GFP mRNA; experiment: Polysome profiling in HEK293T cells; conditions: 200 nM
Description: Polysome Profiling. Polysome profiling studies were completed similarly to previously described methods (12, 30) Yang et al., 2015). Briefly, 100 mm dishes were plated with ˜3.5×10^6 HEK293T cells and batch-transfected for 5 h with 2.5 μg (G4C2)66-No ATG-GFP using Lipofectamine 3000 reagent according to manufacturer protocol. Then, cells were collected and plated overnight in 100 mm dishes with ˜2.5×10^6 HEK293T cells and treated with vehicle (DMSO, 0.5% final concentration) or 3 (200 nM). Upon 24 h treatment, cells were treated with cycloheximide (CHX, 0.1 mg/mL) and incubated for 5 min at 37° C. The medium was removed, and cells were washed by 2×7.5 mL ice cold DPBS supplemented with 0.1 mg/mL CHX. Cells were then lysed with 250 μL of ice-cold Cell Lysis Buffer [10 mM NaCl, 10 mM MgCl2, 10 mM Tris, pH 7.5, 1% Triton X-100, 1% sodium deoxycholate, 1 mM DTT supplemented with […] cycloheximide, and 0.2 U/μL RNAsin (Promega)]. The lysate obtained from 3×100 mm dishes were combined (˜500 μL final volume) and transferred to an Eppendorf tube, passed through a 21G needle several times and centrifuged for 5 min at 13,200 rpm and 4° C. The supernatant was transferred to a new tube and stored at −80° C. until further use. Cell lysates were then loaded on 10-50% sucrose gradients (prepared in 20 mM HEPES, pH 7.4, 100 mM KCl, 5 mM MgCl2, 3 mM DTT, and 0.1 mg/mL CHX) and separated at 40000 rpm for 2 h at 4° C. […] The levels of (G4C2)66-No ATG-GFP mRNA in each fraction were measured by qPCR as described above with primers specific for GFP (non-canonical translation), GAPDH, respectively (canonical translation) (Table 1). Data from vehicle- and compound-treated samples were normalized as follows: triplicate Ct values were averaged and ΔCt values were calculated; ΔΔCt values were afforded by comparing treated to untreated ΔCt values. […]

[2] = system: Nup98; experiment: Nup98 by structured illumination microscopy in patient-derived iPSNs; conditions: 50 nM
Description: Nuclei Isolation and Super Resolution Structured Illumination Microscopy. iPSC-derived spinal neurons were generated according to the previously published diMNs protocol (37). On day 15 and 18 of differentiation, […] G4C2 repeat-targeting ASO was added to media as previously described (59). For compound treatment, 50 nM 7 was added to media on days 15, 18, 21, 24, 27, and 30 of differentiation. On day 32 of differentiation, nuclei isolation was performed using the Nuclei Pure Prep Nuclei Isolation Kit (Sigma Aldrich) as previously described (68). Isolated nuclei were spun onto collagen coated slides and immunostained following standard protocols as previously described (68). Primary antibodies: 1:250 rat anti-Nup98 (Abcam), 1:500 chicken anti-NeuN (Millipore); secondary antibodies: […] Alexa 488 (Invitrogen), goat anti-chicken Alexa 647 (Invitrogen). NeuN positive nuclei were imaged by super resolution structured illumination microscopy (SIM) using a Zeiss ELYRA S.1 as previously described (14). Next, 50 nuclei per iPSC line/treatment group were analyzed using the 3D suite plugin in FIJI. The average number of spots from the 50 nuclei for each cell line and treatment group was used for statistical analyses. […] Quantification is presented as violin plots to represent the full variability of all nuclei analyzed.

[3] = system: C9orf72 intron 1; experiment: C9orf72 intron 1 RT-qPCR in iPSC lines from healthy donors
Description: iPSCs were treated for 4 days in Matrigel (356234, Corning) coated plates with mTeSR™1 feeder-free medium ([…] Technologies; Catalog #85850). Cells were treated in 6-well plates on day 1 and 3 with compounds diluted in 0.1% final DMSO.
Measuring Levels of C9orf72 and C9orf72 Variants by RT-qPCR. LCLs were seeded in 6-well plate (˜10^6 cells in 2 mL of growth medium) and incubated overnight at 37° C. Cells were then treated with various concentrations of compound for 24 h or with G4C2-ASO and Control-ASO (100 nM), delivered by transfection with Lipofectamine RNAiMax. RNA was extracted as described above and the expression of C9orf72 variants was determined by RT-qPCR. For iPSC and iPSC-derived motor neuron cell line, the cells were seeded into Matrigel-coated 6-well plate to ˜60% confluence before treated with 3 μM C9orf72-ASO or Control-ASO and various concentrations of compound for 1 to 2 weeks. For compound treatment well, medium change was performed with fresh compound every 3-4 days. RNA was extracted as described above and the expression of C9orf72 variants was determined by RT-qPCR.

## Cc1c2ccncc2c(C)c2c1[nH]c1ccc(OCCOCCOCCNCCOCCOCCOc3ccc4[nH]c5c(C)c6ccncc6c(C)c5c4c3)cc12 [Compound 3]
[1]
  increase of transcript abundance in low-molecular-weight (LMW) fractions: 17±1%
  polysome loading of GAPDH (control transcript): no effect
  reduction of transcript loaded into high-molecular-weight (HMW) polysome fractions: 22±2%

## CCOC(=O)C1=C(Nc2ccccc2)S/C(=C\c2ccc(OCCOCCOCCOCCNC(=O)CCC(=O)N(CCOCCOCCOc3ccc4[nH]c5c(C)c6ccncc6c(C)c5c4c3)CCOCCOCCOc3ccc4[nH]c5c(C)c6ccncc6c(C)c5c4c3)c(O)c2)C1=O [Compound 7]
[2]
  Nup98 abundance: reversed the loss of Nup98
[3]
  C9orf72 intron 1 levels: no effect
